# Values of other authors, collected in patent US12478643B2, “Compositions and methods for the prevention or treatment of rheumatoid arthritis” (Rhode Island Hospital, priority 2021, dated 2025).
# Like-named read-outs stand apart in the source and are kept apart here.
# Assays:
# SHIP1 [1] = biological target: T1, SHIP1 (Homo sapiens, UniProt Q92835)
# T1 sequence (Q92835 1-1189): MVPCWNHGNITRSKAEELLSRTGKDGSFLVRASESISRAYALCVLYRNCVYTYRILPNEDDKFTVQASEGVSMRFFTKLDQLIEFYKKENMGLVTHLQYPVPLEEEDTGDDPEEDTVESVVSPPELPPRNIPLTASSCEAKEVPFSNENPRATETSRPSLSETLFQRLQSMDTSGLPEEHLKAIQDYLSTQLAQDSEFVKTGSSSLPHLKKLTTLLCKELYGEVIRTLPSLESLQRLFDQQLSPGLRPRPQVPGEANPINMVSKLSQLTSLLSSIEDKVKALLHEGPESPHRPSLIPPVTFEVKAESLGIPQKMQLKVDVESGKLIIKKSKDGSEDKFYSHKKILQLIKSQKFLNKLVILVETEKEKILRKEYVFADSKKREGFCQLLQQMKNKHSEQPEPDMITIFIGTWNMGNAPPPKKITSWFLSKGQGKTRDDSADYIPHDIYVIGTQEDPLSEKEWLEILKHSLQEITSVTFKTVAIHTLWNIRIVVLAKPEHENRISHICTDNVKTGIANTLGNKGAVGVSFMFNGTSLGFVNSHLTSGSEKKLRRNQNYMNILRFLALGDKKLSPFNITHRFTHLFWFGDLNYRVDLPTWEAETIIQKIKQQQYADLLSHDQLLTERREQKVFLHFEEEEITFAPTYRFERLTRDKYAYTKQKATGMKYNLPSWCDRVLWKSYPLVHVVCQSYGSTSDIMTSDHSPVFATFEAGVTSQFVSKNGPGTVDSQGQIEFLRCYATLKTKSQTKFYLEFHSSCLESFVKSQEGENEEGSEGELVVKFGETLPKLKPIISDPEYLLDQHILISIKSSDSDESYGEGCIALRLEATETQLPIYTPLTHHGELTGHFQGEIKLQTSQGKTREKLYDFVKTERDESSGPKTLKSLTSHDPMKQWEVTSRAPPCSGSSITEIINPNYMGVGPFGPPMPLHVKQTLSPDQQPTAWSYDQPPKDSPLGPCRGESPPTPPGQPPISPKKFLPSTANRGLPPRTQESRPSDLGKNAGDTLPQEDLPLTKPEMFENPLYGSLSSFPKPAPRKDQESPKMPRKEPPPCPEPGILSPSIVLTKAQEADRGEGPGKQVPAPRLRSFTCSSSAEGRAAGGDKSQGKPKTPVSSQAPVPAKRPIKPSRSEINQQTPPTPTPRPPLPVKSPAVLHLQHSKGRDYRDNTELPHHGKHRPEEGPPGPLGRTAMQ
# SHIP1 [2] = biological target: T1, SHIP1; conditions: at 100 μM; cited from earlier work
# SHIP2 = biological target: T2, SHIP2 (Homo sapiens, UniProt O15357); conditions: at 100 μM; cited from earlier work
# T2 sequence (O15357 1-1258): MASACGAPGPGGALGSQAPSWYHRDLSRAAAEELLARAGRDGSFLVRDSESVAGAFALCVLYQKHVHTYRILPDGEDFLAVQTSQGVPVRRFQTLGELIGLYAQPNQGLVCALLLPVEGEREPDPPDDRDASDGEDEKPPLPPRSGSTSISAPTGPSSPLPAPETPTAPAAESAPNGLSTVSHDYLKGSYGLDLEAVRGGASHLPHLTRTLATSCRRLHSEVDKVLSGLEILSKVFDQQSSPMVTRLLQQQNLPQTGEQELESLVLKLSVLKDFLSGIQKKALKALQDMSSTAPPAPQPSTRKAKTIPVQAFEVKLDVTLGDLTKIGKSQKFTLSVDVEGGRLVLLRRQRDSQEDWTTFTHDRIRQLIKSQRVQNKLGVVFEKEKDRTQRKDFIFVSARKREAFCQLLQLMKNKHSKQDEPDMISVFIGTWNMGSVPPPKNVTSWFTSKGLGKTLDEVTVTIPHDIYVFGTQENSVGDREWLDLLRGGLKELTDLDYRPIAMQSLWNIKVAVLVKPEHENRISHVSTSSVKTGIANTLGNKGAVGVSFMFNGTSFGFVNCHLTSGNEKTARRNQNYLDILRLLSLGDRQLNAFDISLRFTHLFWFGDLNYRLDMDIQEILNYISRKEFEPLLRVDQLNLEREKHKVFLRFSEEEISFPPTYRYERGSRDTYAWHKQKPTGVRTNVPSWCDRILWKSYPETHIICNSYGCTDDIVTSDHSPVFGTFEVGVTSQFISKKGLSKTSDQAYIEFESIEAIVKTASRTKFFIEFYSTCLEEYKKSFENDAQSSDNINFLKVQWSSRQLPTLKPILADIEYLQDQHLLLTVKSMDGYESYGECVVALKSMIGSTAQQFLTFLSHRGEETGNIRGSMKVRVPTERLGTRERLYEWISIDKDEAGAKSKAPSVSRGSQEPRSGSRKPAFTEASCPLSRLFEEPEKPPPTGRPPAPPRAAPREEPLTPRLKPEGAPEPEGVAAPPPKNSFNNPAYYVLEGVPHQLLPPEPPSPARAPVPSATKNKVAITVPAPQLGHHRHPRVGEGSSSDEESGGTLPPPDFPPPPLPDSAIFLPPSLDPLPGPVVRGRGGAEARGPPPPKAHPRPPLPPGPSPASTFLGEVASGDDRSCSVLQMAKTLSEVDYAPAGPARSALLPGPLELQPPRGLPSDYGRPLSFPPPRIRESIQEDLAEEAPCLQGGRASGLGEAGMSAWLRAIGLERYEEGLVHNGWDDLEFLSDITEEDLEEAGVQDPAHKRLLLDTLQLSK
# [3] = Table 1; read-out: IC50 SHIP1; cited from earlier work
Structure (SMILES),IC50 (SHIP1 [1]; [3]),inhibition of SHIP1 activity (SHIP1 [2]),inhibition of SHIP2 (SHIP2),other results
C[C@H](NC(=O)c1sccc1OCc1ccc(Cl)cc1)c1ccccc1 [AS194490],13 µM,–,–,–
O[C@H](c1cc(-c2ccccc2)nc2c1ccc1ccccc12)[C@@H]1CCCCN1 [Compound 26],–,completely inhibited,approximately 60%,–
O[C@H](c1cc(C2C3CC4CC(C3)CC2C4)nc2c(Cl)cc(Cl)cc12)[C@@H]1CCCCN1 (some centres unmarked) [Compound 27],–,completely inhibited,90%,–
CSc1ccc2c(c1)c(CCN)c(C)n2Cc1ccccc1Cl [Compound 28],–,approximately 70%,50%,–
CC[C@H]1CC[C@H]2[C@@H]3C[C@@H](O)[C@@]4(O)C[C@H](N)CC[C@]4(C)[C@H]3CC[C@]12C [Compound K116],1.5 to 6 µM,–,–,–
CC12CCCC1C1CCC3CC(N)CCC3(C)C1CC2 (centres unmarked) [Compound K118],–,–,–,IC50 (SHIP1 [1]; read-out: IC50 SHIP1; Table 1; cited from earlier work): 16 µM
CC12CCCC1C1CCC3CC(N)C(N)CC3(C)C1CC2 (centres unmarked) [Compound K161],6 µM,–,–,–
CC12CCCC1C1CCC3CC(N)CCC3(C)C1CC2 (centres unmarked) [Compound K185],18 µM,–,–,–
